Data on 17 molecules can be found in PubChem BioAssay (NCI).

What all share (experiment): NCI-60 cell line screen, 48 h
The subject of experiment [1] is OVCAR-8 ovarian.
In experiment [2] the test system is DU-145 prostate.
Experiment [3] deals with SF-539 CNS.
The subject of experiment [4] is A549 NSCLC.
Experiment [5] has as its system OVCAR-4 ovarian.
For experiment [6], the system named is IGROV1 ovarian.
In experiment [7] the test system is TK-10 renal.
The test system of experiment [8] is SK-OV-3 ovarian.
Experiment [9] concerns UACC-62 melanoma.
For experiment [10], the system named is KM12 colon.
Experiment [11] has as its system HCT-15 colon.
Experiment [12] deals with NCI-H522 lung.
Experiment [13] deals with LOX IMVI melanoma.
In experiment [14] the test system is NCI-H460 lung.
For experiment [15], the system named is OVCAR-3 ovarian.
Experiment [16] relates to UACC-257 melanoma.

Structures are written as SMILES.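 How tested: cells in 96-well plates exposed to compound for 48 hours at five concentrations. At the GI50, growth is halved. TGI denotes the concentration required for complete inhibition of growth.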

As to `OC(CC(CC(O)(C(F)(F)Cl)C(F)(F)Cl)=NNc1ccccc1)(C(F)(F)Cl)C(F)(F)Cl`, the TGI in experiment [1] is above 10 µM; in [2] it was 9.08 µM; in [3], 8.75 µM; in experiment [4], above 10 µM; in [5], above 10 µM; in experiment [6], above 10 µM. Further, the TGI in [7] is 9.04 µM; in experiment [8] it was above 10 µM; in experiment [9], 4.95 µM; in experiment [10] it was 7.54 µM; in experiment [11], 9.16 µM; in experiment [12], above 10 µM. For the same molecule, the TGI in experiment [13] came out at 6.91 µM; in [14], 7.85 µM; in experiment [15], 6.38 µM; in experiment [16], 5.24 µM.
For the molecule `O[C@@]1(c2cccs2)c2cccc(Cl)c2[C@](O)(c2cccs2)c2cccc(Cl)c21`, the TGI in [1] is above 100 µM; in experiment [2] it was 64.6 µM; in experiment [3] it was above 100 µM; in experiment [4], 43.7 µM; in [5], 40.9 µM; in experiment [6], 33 µM. The TGI in [7] came out at 99.4 µM; in [8], 74.2 µM; in [9], 23.8 µM; in experiment [10], 34 µM; in experiment [11], 61.7 µM; in experiment [12], 55.6 µM. For the same molecule, the TGI in [13] turned out to be 33.2 µM; in experiment [14] it was 34.2 µM; in experiment [15] it was 37.1 µM; in [16], 30.3 µM.
For the molecule `CC1(C)CC(=O)/C(=C/C2CCNC2=S)C(=O)N1` (centres undefined), the TGI in experiment [1], in experiment [2], in [3], in [4], in experiment [5] and in experiment [6] was above 100 µM in each case. Moreover, the TGI in [7], in experiment [8], in [9], in experiment [10], in experiment [11] and in experiment [12] was above 100 µM in each case. Moreover, the TGI in experiment [13], in [14], in [15] and in [16] was above 100 µM throughout.
Turning to `CCCCCCCC(=O)OC[n+]1ccc(-c2c(COC(=O)NC(C)C)c(COC(=O)NC(C)C)c3n2CCC3)cc1`, the TGI in experiment [1] was above 100 µM; in experiment [2], above 59.8 µM; in experiment [3], above 66.3 µM; in experiment [4], above 100 µM; in [5] it was above 100 µM; in [6], above 68.3 µM. For the same molecule, the TGI was above 100 µM in experiment [7]; above 100 µM in experiment [8]; 33.5 µM in experiment [9]; above 100 µM in [10]; above 100 µM in experiment [11]; above 59.6 µM in [12]. Besides, the TGI in experiment [13] was 54 µM; in experiment [14], above 100 µM; in experiment [15], above 100 µM; in experiment [16], above 100 µM.
For `COC(=O)C1=C(OC(=O)/C(=C/c2ccc(Cl)cc2Cl)c2ccc(Cl)cc2Cl)C(C(=O)OC)[C@@]2(O)[C@@H](C(=O)OC)[C@H](C)C[C@@H]1[C@@H]2C(=O)OC` (some centres undefined), the TGI in [1], in experiment [2], in [3], in experiment [4], in [5] and in experiment [6] was above 100 µM throughout. Further, the TGI in experiment [7], in [8], in experiment [9], in [10], in experiment [11] and in experiment [12] was above 100 µM in each case. Further, the TGI in experiment [13], in experiment [14], in [15] and in experiment [16] was above 100 µM in each case.
On to `CCOC(=O)N1CCN(c2c(C)nc(C)[nH]c2=O)CC1`, for which the TGI in experiment [1], in experiment [2], in [3], in [4], in [5] and in [6] was above 100 µM throughout. Moreover, the TGI in experiment [7], in experiment [8], in experiment [9], in experiment [10], in [11] and in [12] was above 100 µM each time. In addition, the TGI in experiment [13], in experiment [14], in experiment [15] and in [16] was above 100 µM in each case.
For `CCSc1c(C)c2c(n(Cc3ccc(OC)cc3)c1=O)Cc1ccccc1C2`, the TGI in experiment [1] was above 100 µM; in [2], above 100 µM; in experiment [3] it was 80.1 µM; in experiment [4], above 100 µM; in experiment [5] it was above 100 µM; in experiment [6] it was 54.2 µM. Further, the TGI was 73.3 µM in [7]; above 100 µM in [8]; above 100 µM in experiment [9]; above 100 µM in experiment [10]; above 100 µM in [11]; 40.1 µM in [12]. Moreover, the TGI was 76.2 µM in experiment [13], 27.7 µM in experiment [14], above 100 µM in experiment [15] and 44.3 µM in [16].
As for `CC(=O)NC1=C(C)C(=O)c2c(nc3n2CCC3OC(=O)c2ccccc2)C1=N` (centres undefined), the TGI in experiment [1] was 8.5 µM; in experiment [2], 3.44 µM; in experiment [3], 2.56 µM; in [4] it was 11 µM; in [5], 1.2 µM; in [6], 3.58 µM. Besides, the TGI stood at 9.17 µM in [7]; 6.59 µM in experiment [8]; 1.09 µM in [9]; 11.6 µM in [10]; 7.47 µM in experiment [11]; 7.47 µM in experiment [12]. The TGI amounted to 1.33 µM in experiment [13], 3.07 µM in experiment [14], 5.71 µM in [15] and 3.47 µM in experiment [16].
With `COC1(C(C)(C)C)C=C(C(C)(C)C)P(=O)(O)O1` (centres undefined), the TGI in experiment [1], in experiment [2], in [3], in experiment [4], in experiment [5] and in experiment [6] was above 100 µM in each case. Besides, the TGI in experiment [7], in experiment [8], in experiment [9], in experiment [10], in [11] and in experiment [12] was above 100 µM throughout. Besides, the TGI in experiment [13], in experiment [14], in experiment [15] and in experiment [16] was above 100 µM each time.
For the molecule `COC(=O)Nc1nc2ccc(Oc3ccc4nc(NC(=O)OC)[nH]c4c3)cc2[nH]1`, the TGI in experiment [1] is above 100 µM; in experiment [2], 6.09 µM; in experiment [3], 1.69 µM; in [4] it was above 100 µM; in experiment [5], above 100 µM; in experiment [6], above 54.4 µM. In addition, the TGI in experiment [7] is above 63.7 µM; in experiment [8] it was above 100 µM; in [9], above 100 µM; in experiment [10], above 62.5 µM; in [11], above 100 µM; in [12] it was above 100 µM. For the same molecule, the TGI was above 100 µM in experiment [13], above 100 µM in [14], 0.744 µM in experiment [15] and above 100 µM in experiment [16].
Consider `Cc1cccc2[nH]c3cc(O)cc(O)c3c(=O)c12`, for which the TGI in [1], in experiment [2], in experiment [3], in experiment [4], in experiment [5] and in experiment [6] was above 10 µM in each case. The TGI in [7], in experiment [8], in experiment [9], in [10], in experiment [11] and in experiment [12] was above 10 µM in each case. Moreover, the TGI in experiment [13], in experiment [14], in [15] and in [16] was above 10 µM in each case.
Turning to `CCCCC1Cc2ccccc2-c2n1c1ccccc1[n+]2C` (centres undefined), the TGI in experiment [1], in [2], in experiment [3], in experiment [5], in experiment [6] and in experiment [7] was above 100 µM throughout. Also, the TGI was above 100 µM in experiment [8]; above 100 µM in experiment [10]; above 100 µM in experiment [11]; 27.9 µM in [12]; 62.3 µM in [13]; above 100 µM in experiment [14]. For the same molecule, the TGI was above 100 µM in experiment [15] and 25.2 µM in experiment [16].
For `CCC(C)C(C(=O)N/N=C1/SCC(=O)N1C)C(=O)N/N=C1/SCC(=O)N1C` (centres undefined), the TGI in experiment [1], in [2], in [3], in experiment [4], in experiment [5] and in experiment [6] was above 100 µM in each case. In addition, the TGI in [7], in experiment [8], in experiment [9], in experiment [10], in experiment [11] and in [12] was above 100 µM throughout. Also, the TGI in experiment [13], in [14], in [15] and in experiment [16] was above 100 µM each time.
As for `FC(F)(F)c1nc2ccc(SSc3ccc4nc(C(F)(F)F)[nH]c4c3)cc2[nH]1`, the TGI in experiment [1], in experiment [2], in experiment [3], in experiment [4], in experiment [5] and in experiment [6] was above 100 µM in each case. Besides, the TGI in experiment [7], in [9], in experiment [10], in [11], in experiment [12] and in [13] was above 100 µM throughout. The figures for the TGI in experiment [14], in experiment [15] and in experiment [16] were 75.1 µM, above 100 µM and above 100 µM, respectively. Moreover, the GI50 in experiment [2], in experiment [6] and in experiment [10] was above 100 µM throughout.
For `CC1=C(C(=O)N[C@@H](Cc2ccccc2)C(=O)O)N2C(=O)[C@@H](NC(=O)[C@@H](N)CC(C)C)[C@H]2SC1`, the TGI in experiment [1], in experiment [2], in experiment [3], in experiment [4], in experiment [5] and in [6] was above 100 µM throughout. The TGI in experiment [7], in experiment [9], in experiment [10], in experiment [11], in experiment [12] and in [13] was above 100 µM in each case. Moreover, the TGI in experiment [14], in experiment [15] and in experiment [16] was above 100 µM each time.
As for `COc1ccc(/C(CCl)=C(\Nc2ccccc2)c2ccc(OC)c(OC)c2)cc1OC`, the TGI in experiment [1], in [2], in [3], in [4], in experiment [5] and in [7] was above 100 µM each time. Also, the TGI in experiment [8], in experiment [9], in [10], in [11], in [12] and in [13] was above 100 µM in each case. Further, the TGI in experiment [14], in experiment [15] and in experiment [16] was above 100 µM each time.
Take `Oc1[nH]c2ccccc2c1N=NC(=S)N1CCCCC1`: the TGI in experiment [1] worked out at 1.8 µM; in experiment [2], 10.9 µM; in [3], 1.49 µM; in [4], 3.44 µM; in experiment [5], 4.48 µM; in experiment [6], 1.77 µM. For the same molecule, the TGI in [7] is 3.84 µM; in experiment [8] it was 7.62 µM; in experiment [9], 4.01 µM; in [10], 1.62 µM; in experiment [11] it was 2.42 µM; in experiment [12], 15.5 µM. The figures for the TGI in [13], in [14] and in experiment [15] were 3.2 µM, 2.29 µM and 1.7 µM, respectively.
